Assay results taken from patent US10457707B2, “Substituted urea depsipeptide analogs as activators of the CLPP endopeptidase” (priority 2015, dated 2019).
Converted amounts (≈) assume the structure as drawn. Read-outs that look alike come from different tables or passages of the source. *1 amine or outer side, *2 acyl side, *3 side chain or, on linkers, in order; H or OH if unused. Where a SMILES comes first, the peptide text is derived from it. Bridges are numbered along the chain shown (N, C = ends). [ ]: non-standard residue; d: D form. The star is where a group is joined. ξ: configuration not given here. Phe(3,5-F2) = N[C@@H](Cc1cc(F)cc(F)c1)C(=O)O; NH(4-OCF3-phenyl) = FC(F)(F)Oc1ccc(N*)cc1; ξPro(4S-Me) = C[C@@H]1CNC(C(=O)O)C1; NH(4-Me-phenyl) = Cc1ccc(N*)cc1; aThr = C[C@H](O)[C@H](N)C(=O)O; X5 = O=C(C1COCCN1[*:1])[*:2]; Pip = O=C(O)[C@@H]1CCCCN1; CO = O=C([*:1])[*:2]; ξP = O=C(O)C1CCCN1

Legend:
Assay type in all cases: cell-based
[1] = system: Vero (kidney epithelial cells; ATCC CCL-81); experiment: Cytotoxicity assay (CellTiter-Glo cell viability, 72 hours)
Outline: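 Viability measured by CellTiter-Glo luminescence after 72-hour compound exposure (serial dilutions, DMSO control) of Vero monolayers seeded at 5000 cells/well in 10% FBS DMEM. IC50 values are the range of two biologically independent experiments, each run in duplicate.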

[2] = system: Bacillus subtilis, ATCC 23857; experiment: Minimal inhibitory concentration assay (microbroth dilution)
Outline: (§1)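 Paired MICs against USA 300 and its ClpP-inactivated counterpart test whether killing runs through ClpP. All strains: two-fold broth dilutions from 200 μM final, ~10^5 cfu/mL inoculum, overnight at 37 °C in air, lowest growth-free concentration read by eye.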

[3] = system: Enterococcus faecalis, ATCC 33186; experiment: as above; conditions: Enterococcus faecalis, ATCC33186, read-out: Minimal Inhibitory Concentrations E. faecalis ATCC 33186
Outline: as §1

[4] = system: Staphylococcus aureus, ATCC 29213; experiment: as above; conditions: ATCC29213, read-out: Minimal Inhibitory Concentrations S. aureus ATCC 29213
Outline: as §1

[5] = system: Staphylococcus aureus, NRS70; experiment: as above
Outline: as §1

[6] = system: Streptococcus pyogenes, ATCC 700294; experiment: as above
Outline: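 Plates with two-fold compound dilution series in broth were incubated overnight, aerobically, at 37° C, following CLSI microdilution guidance.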

[7] = system: Staphylococcus aureus, USA 300 wherein ClpP is inactivated; experiment: Minimal inhibitory concentration assay
Outline: as §1

[8] = system: Staphylococcus aureus, USA 300; experiment: Minimal inhibitory concentration assay; conditions: USA300, read-out: Minimal Inhibitory Concentrations S. aureus USA 300
Outline: as §1

[9] = system: Streptococcus pneumoniae, R6; experiment: Minimal inhibitory concentration assay; conditions: read-out: Minimal Inhibitory Concentrations S. pneumoniae R6
Outline: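 Microbroth dilution with two-fold serial compound dilutions in broth, incubated aerobically overnight at 37° C. MIC taken as the lowest concentration preventing bacterial growth.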

[10] = Vero cells, 72 hours, growth inhibition, read-out: Cytotoxicity IC50
[11] = Bacillus subtilis, ATCC23857, read-out: Minimal Inhibitory Concentrations B. subtilis ATCC 23857
[12] = Staphylococcus aureus, NRS70, read-out: Minimal Inhibitory Concentrations S. aureus NRS70
[13] = Streptococcus pyogenes, ATCC700294, read-out: Minimal Inhibitory Concentrations S. pyogenes ATCC 700294

Compound | IC50 [1, 10] [µM] | MIC [2, 11] [µM] | MIC [3] [µM] | MIC [4] [µM] | MIC [5, 12] [µM] | MIC [6, 13] [µM] | Minimal Inhibitory Concentrations S. aureus USA 300 ΔClpP [7] [µM] | MIC [8] [µM] | MIC [9] [µM] | IC50 ([1]; African green monkey, 72 h) [µM] | MIC ([2]; Bacillus subtilis, ATCC23857; read-out: Minimal Inhibitory Concentrations B. subtilis ATCC 23857) [µM] | MIC ([5]; Staphylococcus aureus, NRS70; read-out: Minimal Inhibitory Concentrations S. aureus NRS70) [µM] | MIC ([6]; Streptococcus pyogenes, ATCC700294; read-out: Minimal Inhibitory Concentrations S. pyogenes ATCC 700294) [µM]
Cc1ccc(NC(=O)N[C@@H](Cc2cc(F)cc(F)c2)C(=O)N[C@@H]2C(=O)N3CCC[C@H]3C(=O)N3CCCC[C@H]3C(=O)N[C@@H](C)C(=O)N3CCC[C@H]3C(=O)O[C@H]2C)cc1 [Compound 15, (S)-3-(3,5-difluorophenyl)-N-((6S,8aS,14aS,20S,21S,23aS)-6,21-dimethyl-5,8,14,19,23-pentaoxooctadecahydro-1H,5H,14H,19H-pyrido[2,1-i]dipyrrolo[2,1-c:2′,1′-l][1]oxa[4,7,10,13]tetraazacyclohexadecin-20-yl)-2-(3-(p-tolyl)ureido)propanamide] ({NH(4-Me-phenyl)-CO}-[Phe(3,5-F2)][aThr]P[Pip]AP; ester 2-C) | 39.7 ± 6.6 | < 0.1 | 0.3 (≈ 0.238 µg/mL) | 0.6 (≈ 0.476 µg/mL) | 0.3 (≈ 0.238 µg/mL) | 0.6 (≈ 0.476 µg/mL) | 100 | < 0.1 | 0.3 (≈ 0.238 µg/mL) |  |  |  | 
Cc1ccc(NC(=O)N[C@@H](Cc2ccccc2)C(=O)N[C@H]2COC(=O)C3C[C@H](C)CN3C(=O)[C@H](C)NC(=O)C3CCCCN3C(=O)C3CCCN3C2=O)cc1 (stereo partly drawn) [Compound 43, (S)—N-((2S,6S,8aS,14aS,20S,23aS)-2,6-dimethyl-5,8,14,19,23-pentaoxooctadecahydro-1H,5H,14H,19H-pyrido[2,1-i]dipyrrolo[2,1-c:2′,1′-l][1]oxa[4,7,10,13]tetraazacyclohexadecin-20-yl)-3-phenyl-2-(3-(p-tolyl)ureido)propanamide] | 74.5 ± 8.8 | 0.4 (≈ 0.303 µg/mL) |  | 1.6 (≈ 1.21 µg/mL) | 1.6 (≈ 1.21 µg/mL) | 0.8 (≈ 0.606 µg/mL) | >200 | 3.1 (≈ 2.35 µg/mL) | 0.2 (≈ 0.152 µg/mL) |  |  |  | 
C[C@H]1CC2C(=O)O[C@@H](C)[C@H](NC(=O)[C@H](Cc3cc(F)cc(F)c3)NC(=O)Nc3ccc(OC(F)(F)F)cc3)C(=O)N3CCCC3C(=O)N3CCOCC3C(=O)N[C@@H](C)C(=O)N2C1 (stereo partly drawn) [Compound 34, (S)-3-(3,5-difluorophenyl)-2-(3-(4-(trifluoromethoxy)phenyl)ureido)-N-((6aS,12S,13S,15aS,17S,21S,23aS)-13,17,21-trimethyl-6,11,15,20,23-pentaoxooctadecahydro-6H,11H,15H-[1,4]oxazino[3,4-i]dipyrrolo[2,1-c:2′,1′-l][1]oxa[4,7,10,13]tetraazacyclohexadecin-12-yl)propanamide] ({NH(4-OCF3-phenyl)-CO}-[Phe(3,5-F2)][aThr][ξP][X5]A[ξPro(4S-Me)]; ester 2-C) |  |  |  | 0.05 (≈ 0.044 µg/mL) |  |  | 50 | 0.05 (≈ 0.044 µg/mL) | 0.049 (≈ 0.0431 µg/mL) | 26 ± 2.6 | 0.02 (≈ 0.0176 µg/mL) | 0.02 (≈ 0.0176 µg/mL) | 0.1 (≈ 0.088 µg/mL)
Cc1ccc(NC(=O)N[C@@H](Cc2cc(F)cc(F)c2)C(=O)N[C@@H]2C(=O)N3CCCC3C(=O)N3CCOCC3C(=O)N[C@@H](C)C(=O)N3C[C@@H](C)CC3C(=O)O[C@H]2C)cc1 (stereo partly drawn) [Compound 33, (S)-3-(3,5-difluorophenyl)-2-(3-(p-tolyl)ureido)-N-((6aS,12S,13S,15aS,17S,21S,23aS)-13,17,21-trimethyl-6,11,15,20,23-pentaoxooctadecahydro-6H,11H,15H-[1,4]oxazino[3,4-i]dipyrrolo[2,1-c:2′,1′-l][1]oxa[4,7,10,13]tetraazacyclohexadecin-12-yl)propanamide] ({NH(4-Me-phenyl)-CO}-[Phe(3,5-F2)][aThr][ξP][X5]A[ξPro(4S-Me)]; ester 2-C) | 41 ± 4.3 | 0.2 (≈ 0.162 µg/mL) |  | 0.2 (≈ 0.162 µg/mL) | 0.1 (≈ 0.081 µg/mL) | 0.39 (≈ 0.316 µg/mL) | 200 | 0.2 (≈ 0.162 µg/mL) | 0.098 (≈ 0.0794 µg/mL) |  |  |  | 
